PMC7641581, “Cannabidiol interactions with voltage-gated sodium channels” (eLife, 2020)
Where a chain is given by its changes, count along the chain named.

What was measured:
[1] = target: T1, NavMs voltage-gated sodium channel (Magnetococcus marinus, UniProt A0L5S6); assay: whole-cell voltage-clamp of transfected CHO-K1 cells; type: cell-based
T1 construct: gene Mmc1_0798; wild-type NavMs α-subunit in CHO-K1 cells, co-transfected with β1-subunit and eGFP
T1 sequence (A0L5S6 1-274): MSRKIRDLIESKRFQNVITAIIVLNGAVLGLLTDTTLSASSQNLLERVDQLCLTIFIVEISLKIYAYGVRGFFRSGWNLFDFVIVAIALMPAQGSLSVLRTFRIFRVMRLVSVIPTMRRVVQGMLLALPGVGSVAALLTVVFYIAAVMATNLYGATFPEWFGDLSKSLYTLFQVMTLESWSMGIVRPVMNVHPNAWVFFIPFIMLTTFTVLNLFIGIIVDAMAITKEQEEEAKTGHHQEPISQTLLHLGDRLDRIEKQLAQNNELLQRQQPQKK

[2] = target: T2, NavMs voltage-gated sodium channel (Magnetococcus marinus, UniProt A0L5S6, T207A); assay: whole-cell voltage-clamp, block at […] CBD; type: cell-based
T2 construct: gene Mmc1_0798; T207A NavMs α-subunit in CHO-K1 cells, co-transfected with β1-subunit and eGFP
T2 sequence (A0L5S6 1-274 T207A): T1 sequence (A0L5S6 1-274) with T207A

`C=C(C)[C@@H]1CCC(C)=C[C@H]1c1c(O)cc(CCCCC)cc1O` [Cannabidiol] was tested, and the IC50 [1] was 17.8 ± 0.5 µM and the “whole-cell voltage-clamp, block at 10 μM CBD” value [2] was “The mutation of the threonine side chain to a smaller alanine side chain results in a modest reduction in the CBD block”.
